These are literature values, as cited in patent publication US8362030B2, “Tricyclic derivatives as inhibitors of poly(ADP-ribose) polymerase (PARP)” (Istituto di Ricerche di Biologia Molecolare P. Angeletti …, priority 2008, dated 2013).

The series deals with ischemia and reperfusion of the heart. Particulars: rabbits.

For `Oc1cccc2c(O)nccc12` [1,5-dihydroxyisoquinoline], the “reduction in infarct size” value (single injection 1 mg/kg) is recorded as 38-48%.
As for `NC(=O)c1cccc(N)c1` [3-amino-benzamide], the “reduction in infarct size in the heart” value (single injection 10 mg/kg, one minute before occlusion or before reperfusion) is 32-42%.
